Ends that are not written are not given here.
Key:
[1] = Solubility and stability characteristics compared to human amylin; format: physicochemical
Description: (§1) These preferred compounds include ^25Pro^26Val^28,29Pro-h-amylin, ^25,28,29Pro-h-amylin (also referred to herein as “AC-0137”), and ^18Arg^25,28Pro-h-amylin.

[2] = target: T1, membrane-bound amylin receptors (Rattus norvegicus, UniProt P32214+Q9JJ74); assay: Receptor binding assay (competition with 125I Bolton Hunter rat amylin)
T1 construct: A preferred source of the membrane preparations used in the assay is the basal forebrain which comprises membranes from the nucleus accumbens; from tissue; host or cells: basal forebrain membranes (nucleus accumbens and surrounding regions)
T1 sequence (P32214 25-516): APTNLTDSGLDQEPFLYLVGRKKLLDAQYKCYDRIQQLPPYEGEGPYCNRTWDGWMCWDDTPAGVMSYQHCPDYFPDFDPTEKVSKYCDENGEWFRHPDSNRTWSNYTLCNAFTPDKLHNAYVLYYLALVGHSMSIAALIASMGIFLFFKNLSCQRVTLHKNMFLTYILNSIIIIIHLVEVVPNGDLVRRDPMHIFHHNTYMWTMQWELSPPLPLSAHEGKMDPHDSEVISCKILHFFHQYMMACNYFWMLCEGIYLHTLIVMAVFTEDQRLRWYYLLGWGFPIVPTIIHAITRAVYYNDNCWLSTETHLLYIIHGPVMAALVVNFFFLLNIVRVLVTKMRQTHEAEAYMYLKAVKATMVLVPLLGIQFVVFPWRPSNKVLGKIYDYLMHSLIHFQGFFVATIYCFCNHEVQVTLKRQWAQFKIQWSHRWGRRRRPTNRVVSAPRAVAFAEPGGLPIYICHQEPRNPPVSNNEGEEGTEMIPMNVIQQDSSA
T1 sequence (Q9JJ74 27-148): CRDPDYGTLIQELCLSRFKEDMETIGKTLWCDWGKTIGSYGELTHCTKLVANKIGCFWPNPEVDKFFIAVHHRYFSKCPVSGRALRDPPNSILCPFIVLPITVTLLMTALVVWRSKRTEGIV
Description: The receptor binding assay is described in U.S. Pat. No. 5,264,372, issued Nov. 23, 1993, the disclosure of which is incorporated herein by reference. The receptor binding assay is a competition assay which measures the ability of compounds to bind specifically to membrane-bound amylin receptors. A preferred source of the membrane preparations used in the assay is the basal forebrain which comprises membranes from the nucleus accumbens and surrounding regions. Compounds being assayed compete for binding to these receptor preparations with ^125I Bolton Hunter rat amylin. Competition curves, wherein the amount bound (B) is plotted as a function of the log of the concentration of ligand are analyzed by computer, using analyses by nonlinear regression to a 4-parameter logistic equation (Inplot program; GraphPAD Software, San Diego, Calif.) or the ALLFIT program of DeLean et. al. (ALLFIT, Version 2.7 (NIH, Bethesda, Md. 20892)). Munson, P. and Rodbard, D., Anal. Biochem. 107:220-239 (1980).

[3] = tested on: insulin-stimulated glycogen synthesis in soleus muscle; assay: Soleus muscle assay; design: species or system rat
Experimental: Assays of biological activity of amylin agonists, including amylin agonist analogue preparations, in the soleus muscle are performed using previously described methods (Leighton, B. and Cooper, G. J. S., Nature, 335:632-635 (1988); Cooper, G. J. S., et al. Proc. Natl. Acad. Sci. USA 85:7763-7766 (1988)). In summary, amylin agonist activity is assessed by measuring the inhibition of insulin-stimulated glycogen synthesis in soleus muscle. Amylin antagonist activity is assessed by measuring the resumption of insulin-stimulated glycogen synthesis in the presence of 100 nM rat amylin and an amylin antagonist. Concentrations of peptide dissolved in carrier-free buffers are determined by quantitative amino acid analysis, as described therein. The ability of compounds to act as agonists in this assay is determined by measuring EC50 values. Standard errors are determined by fitting of sigmoidal dose response curves using a four parameter logistic equation (De Lean, A., Munson, P. J., Guardabasso, V. and Rodbard, D. (1988) ALLFIT, Version 2.7, National Institute of Child Health and Human Development, N.I.H. Bethesda, Md., 1 diskette). A number of amylin agonists have been characterized using these biological assays.

treated test animals = assay: Amylin activity in vivo in treated test animals
Description: as §1

## CC[C@H](C)[C@H](NC(=O)[C@@H]1CCCN1C(=O)CNC(=O)[C@H](Cc1ccccc1)NC(=O)[C@H](CC(N)=O)NC(=O)[C@H](CC(N)=O)NC(=O)[C@H](CO)NC(=O)[C@H](CO)NC(=O)[C@H](Cc1c[nH]cn1)NC(=O)[C@@H](NC(=O)[C@H](CC(C)C)NC(=O)[C@H](Cc1ccccc1)NC(=O)[C@H](CC(N)=O)NC(=O)[C@H](C)NC(=O)[C@H](CC(C)C)NC(=O)[C@H](CCCNC(=N)N)NC(=O)[C@H](CCC(N)=O)NC(=O)[C@@H](NC(=O)[C@H](C)NC(=O)[C@@H]1CSSC[C@H](NC(=O)[C@@H](N)CCCCN)C(=O)N[C@@H](CC(N)=O)C(=O)N[C@@H]([C@@H](C)O)C(=O)N[C@@H](C)C(=O)N[C@@H]([C@@H](C)O)C(=O)N1)[C@@H](C)O)C(C)C)C(=O)N[C@@H](CC(C)C)C(=O)N1CCC[C@H]1C(=O)N1CCC[C@H]1C(=O)N[C@H](C(=O)N[C@@H](CC(N)=O)C(=O)N[C@H](C(=O)NCC(=O)N[C@@H](CO)C(=O)N[C@@H](CC(N)=O)C(=O)N[C@H](C(=O)N[C@@H](Cc1ccc(O)cc1)C(N)=O)[C@@H](C)O)C(C)C)[C@@H](C)O [AC137, ^25,28,29Pro-h-amylin]
[1]
  stability characteristics: more desirable

## ^18Arg^25,28,29Pro-h-amylin
[2]
  competition with amylin in the receptor binding assay: found to compete with amylin
[3]
  amylin agonist action in the soleus muscle assay: shown to act as amylin agonists
  antagonist activity as measured by the soleus muscle assay: negligible antagonist activity

## ^25Pro^26Val^25,28Pro-h-amylin
[2]
  competition with amylin in the receptor binding assay: found to compete with amylin
[3]
  amylin agonist action in the soleus muscle assay: shown to act as amylin agonists
  antagonist activity as measured by the soleus muscle assay: negligible antagonist activity

## ^28Pro-h-amylin (KCNTATCATQRLANFLVHSSNNFGAILPSTNVGSNTY; ends and bridges not checked; cysteine pairing not given here; UniProt P10997 34-70, looked up, variant S28P) [amylin agonist analogue of human amylin]
Treated test animals
  amylin activity in vivo: marked hyperlactemia followed by hyperglycemia

## des-^1Lys-h-amylin [des-^1Lys-hamylin]
Treated test animals
  amylin activity in vivo: marked hyperlactemia followed by hyperglycemia

## des-^1Lys^18Arg^25,28,29Pro-h-amylin
[2]
  competition with amylin in the receptor binding assay: found to compete with amylin
[3]
  amylin agonist action in the soleus muscle assay: shown to act as amylin agonists
  antagonist activity as measured by the soleus muscle assay: negligible antagonist activity

## des-^1Lys^18Arg^25,28Pro-h-amylin
[2]
  competition with amylin in the receptor binding assay: found to compete with amylin
Treated test animals
  amylin activity in vivo: marked hyperlactemia followed by hyperglycemia
[3]
  amylin agonist action in the soleus muscle assay: shown to act as amylin agonists
  antagonist activity as measured by the soleus muscle assay: negligible antagonist activity

## des-^1Lys^25,28,29Pro-h-amylin
[2]
  competition with amylin in the receptor binding assay: found to compete with amylin
[3]
  amylin agonist action in the soleus muscle assay: shown to act as amylin agonists
  antagonist activity as measured by the soleus muscle assay: negligible antagonist activity
